# According to ChEMBL document CHEMBL4330077, “1,1-Diheterocyclic Ethylenes Derived from Quinaldine and Carbazole as New Tubulin-Polymerization Inhibitors: Synthesis, Metabolism, and Biological Evaluation” (J Med Chem, 2019):
# Calls of active or inactive are those of the source. The calls are words filed in the database; no cut-off is given here.
# Tests used:
# HCT-116 [1] = test: cells; details: Homo sapiens, HCT-116, 72 h
# Description: Antiproliferative activity against human HCT116 cells after 72 hrs by MTS assay
# [2] = Inhibition of sheep brain tubulin polymerization by DAPI-fluorescence based fluorimetry; design: species or system Ovis aries
# [3] = Lipophilicity, log P of the compound after 24 hrs by HPLC analysis; type: physicochemical
# Cytochrome P450 [4] = test: Drug metabolism in human liver microsomes assessed as cytochrome P450-mediated N-demethylated metabolite formation at 100 uM after 6 hrs in presence of NADPH generating system by HPLC-UV-MS analysis; type: ADME
# Cytochrome P450 [5] = test: Drug metabolism in human liver microsomes assessed as cytochrome P450-mediated hydroxylated metabolite formation at 100 uM after 6 hrs in presence of NADPH generating system by HPLC-UV-MS analysis; type: ADME
# [6] = Aqueous solubility of the compound in phosphate buffer at pH 7.4 after 4 hrs by HPLC-UV analysis; type: physicochemical
# [7] = Drug metabolism in rat liver microsomes assessed as cytochrome P450-mediated hydroxylated metabolite formation at 100 uM after 6 hrs in presence of NADPH generating system by HPLC-UV-MS analysis; type: ADME
# [8] = Drug metabolism in rat liver microsomes assessed as cytochrome P450-mediated N-demethylated metabolite formation at 100 uM after 6 hrs in presence of NADPH generating system by HPLC-UV-MS analysis; type: ADME
# Cytochrome P450 [9] = test: Drug level in human liver microsomes treated with isocombratestatin-A4 assessed as CYP450-mediated compound metabolism at 100 uM after 6 hrs in presence of NADPH generating system by HPLC-UV-MS analysis; type: ADME
# [10] = Drug level in rat liver microsomes treated with isocombratestatin-A4 assessed as CYP450-mediated compound metabolism at 100 uM after 6 hrs in presence of NADPH generating system by HPLC-UV-MS analysis; type: ADME
# K-562R [11] = test: Antiproliferative activity against human K562R cells after 72 hrs by MTS assay; type: functional, cell-based
# A549 [12] = test: cells; details: Homo sapiens, A549, 72 h
# Description: Antiproliferative activity against human A549 cells after 72 hrs by MTS assay
# HUVEC [13] = test: cells; details: Homo sapiens, 72 h
# Description: Antiproliferative activity against HUVEC after 72 hrs by MTS assay
# U-87 MG = test: Antiproliferative activity against human U87MG cells after 72 hrs by MTS assay; type: functional, cell-based, U-87MG ATCC
# K562 = test: cells; details: Homo sapiens, K562, 72 h
# [14] = Drug metabolism in rat liver microsomes assessed as cytochrome P450-mediated 4-(1-(3-hydroxy-4-methoxyphenyl)vinyl)-2,6-dimethoxyphenol metabolite formation at 100 uM after 6 hrs in presence of NADPH generating system by HPLC-UV-MS analysis; type: ADME
# Cytochrome P450 [15] = test: Drug metabolism in human liver microsomes assessed as cytochrome P450-mediated 4-(1-(3-hydroxy-4-methoxyphenyl)vinyl)-2,6-dimethoxyphenol metabolite formation at 100 uM after 6 hrs in presence of NADPH generating system by HPLC-UV-MS analysis; type: ADME
# HT-29 = test: cells; details: Homo sapiens, HT-29, 72 h
# Description: Antiproliferative activity against human HT-29 cells after 72 hrs by MTS assay
# [16] = Drug metabolism in rat liver microsomes assessed as cytochrome P450-mediated 2-methoxy-5-(1-(3,4,5-trimethoxyphenyl)vinyl)cyclohexa-2,5-diene-1,4-dione metabolite formation at 100 uM after 6 hrs in presence of NADPH generating system by HPLC-UV-MS analysis; type: ADME
# Cytochrome P450 [17] = test: Drug metabolism in human liver microsomes assessed as cytochrome P450-mediated 2-methoxy-5-(1-(3,4,5-trimethoxyphenyl)vinyl)cyclohexa-2,5-diene-1,4-dione metabolite formation at 100 uM after 6 hrs in presence of NADPH generating system by HPLC-UV-MS analysis; type: ADME
# [18] = Metabolic stability in rat liver microsomes assessed as parent compound at 100 uM up to […] in presence of NADPH generating system by HPLC-MS/MS analysis; type: ADME, Microsome
# Cytochrome P450 [19] = test: Drug metabolism in human liver microsomes assessed as cytochrome P450-mediated 3-(1-(2-methylquinolin-4-yl)vinyl)-9H-carbazole metabolite formation at 100 uM after 6 hrs in presence of NADPH generating system by HPLC-UV-MS analysis; type: ADME
# HCT-116 [20] = test: Induction of cell cycle arrest in human HCT116 cells assessed as accumulation at G2M phase after 24 hrs by propidium iodide staining based flow cytometry; type: functional
# K-562R [21] = test: Potency index, ratio of iso-CA-4 IC50 to compound IC50 for antiproliferative activity against human K562R cells; type: functional
# HCT-116 [22] = test: Induction of cell cycle arrest in human HCT116 cells assessed as accumulation at G2M phase at 10 nM after 24 hrs by propidium iodide staining based flow cytometry relative to control; type: functional
# K-562R [23] = test: Potency index, ratio of CA-4 IC50 to compound IC50 for antiproliferative activity against human K562R cells; type: functional
# [24] = Metabolic stability in human liver microsomes assessed as parent compound at 100 uM up to […] in presence of NADPH generating system by HPLC-MS/MS analysis; type: ADME, Microsome
# HUVEC [25] = test: Antiangiogenic activity in HUVEC assessed as disorganization of the vasculature network at 10 nM after 6 hrs by matrigel assay; type: functional, cell-based; details: Homo sapiens
# [26] = Drug metabolism in rat liver microsomes assessed as cytochrome P450-mediated 3-(1-(2-methylquinolin-4-yl)vinyl)-9H-carbazole metabolite formation at 100 uM after 6 hrs in presence of NADPH generating system by HPLC-UV-MS analysis; type: ADME
# A549 [27] = test: Potency index, ratio of CA-4 IC50 to compound IC50 for antiproliferative activity against human A549 cells; type: functional
# HUVEC [28] = test: Antiangiogenic activity in HUVEC assessed as inhibition of tube formation after 2 to 6 hrs by matrigel assay; type: functional, cell-based; details: Homo sapiens
# HUVEC [29] = test: Antiangiogenic activity in HUVEC assessed as disorganization of the vasculature network at 50 nM after 2 hrs by matrigel assay; type: functional, cell-based; details: Homo sapiens
# Cytochrome P450 [30] = test: Drug level in human liver microsomes treated with 9-Methyl-3-(1-(2-methylquinolin-4-yl)vinyl)-9H-carbazole assessed as CYP450-mediated compound metabolism at 100 uM after 6 hrs in presence of NADPH generating system by HPLC-UV-MS analysis; type: ADME
# [31] = Drug level in rat liver microsomes treated with 9-Methyl-3-(1-(2-methylquinolin-4-yl)vinyl)-9H-carbazole assessed as CYP450-mediated compound metabolism at 100 uM after 6 hrs in presence of NADPH generating system by HPLC-UV-MS analysis; type: ADME
# Cytochrome P450 [32] = test: Drug metabolism in human liver microsomes assessed as cytochrome P450-mediated 6-(1-(3-hydroxy-4-methoxyphenyl)vinyl)-2,3,4-trimethoxyphenol metabolite formation at 100 uM after 6 hrs in presence of NADPH generating system by HPLC-UV-MS analysis; type: ADME
# Cytochrome P450 [33] = test: Drug metabolism in human liver microsomes assessed as cytochrome P450-mediated O-demethylated metabolite formation at 100 uM after 6 hrs in presence of NADPH generating system by HPLC-UV-MS analysis; type: ADME
# [34] = Drug metabolism in rat liver microsomes assessed as cytochrome P450-mediated 6-(1-(3-hydroxy-4-methoxyphenyl)vinyl)-2,3,4-trimethoxyphenol metabolite formation at 100 uM after 6 hrs in presence of NADPH generating system by HPLC-UV-MS analysis; type: ADME
# [35] = Drug metabolism in rat liver microsomes assessed as cytochrome P450-mediated O-demethylated metabolite formation at 100 uM after 6 hrs in presence of NADPH generating system by HPLC-UV-MS analysis; type: ADME
smiles,measurement,setting,value
C=C(c1ccnc(C)c1)c1ccc2c(c1)c1ccccc1n2C,IC50,HCT-116 [1],19 nM
same,IC50,[2],6200 nM
C=C(c1ccc2c(ccn2C)c1)c1cc(C#N)nc2ccccc12,logP at 24 h,[3],2.37
same,Drug metabolism,Cytochrome P450 [4],Metabolite_Detected
same,Drug metabolism,Cytochrome P450 [5],Metabolite_Detected
same,solubility at 4 h,[6],3.11 µg/mL
same,Drug metabolism,[7],Metabolite_Detected
same,Drug metabolism,[8],Metabolite_Detected
C=C(C1=CC(=O)C(OC)=CC1=O)c1cc(OC)c(OC)c(OC)c1,Drug metabolism,Cytochrome P450 [9],Metabolite_Detected
same,Drug metabolism,[10],Metabolite_Detected
C=C(c1ccc2c(c1)c1ccccc1n2C)c1cn(C)c(=O)n(C)c1=O,IC50,HCT-116 [1],195 nM
C=C(c1cc(C)nc(C)c1)c1ccc2c(ccn2C)c1,IC50,K-562R [11],0.84 nM
same,logP at 24 h,[3],5.2
same,IC50,HCT-116 [1],3.8 nM
same,IC50,[2],3700 nM
same,IC50,A549 [12],61.9 nM
same,Drug metabolism,Cytochrome P450 [4],Metabolite_Detected
same,IC50,HUVEC [13],0.9 nM
same,Drug metabolism,Cytochrome P450 [5],Metabolite_Detected
same,IC50,U-87 MG,31.6 nM
same,IC50,K562,1.82 nM
same,solubility at 4 h,[6],0.54 µg/mL
same,Drug metabolism,[7],Metabolite_Detected
same,Drug metabolism,[8],Metabolite_Detected
COc1ccc(/C=C\c2cc(OC)c(OC)c(OC)c2)cc1O [COMBRETASTATIN A4],Drug metabolism,[14],Metabolite_Detected
same,IC50,HCT-116 [1],2.2 nM
same,IC50,[2],2200 nM
same,Drug metabolism,Cytochrome P450 [15],Metabolite_Detected
same,IC50,A549 [12],200 nM
same,IC50,HT-29,> 8000 nM
same,Drug metabolism,[16],Metabolite_Detected
same,Drug metabolism,Cytochrome P450 [17],Metabolite_Detected
same,IC50,HUVEC [13],1.7 nM
same,IC50,U-87 MG,4 nM
same,IC50,K562,5 nM
C=C(c1ccc2c(c1)c1ccccc1n2C)c1cc(C)nc2ccccc12,Stability,[18],Stable
same,IC50,K-562R [11],0.9 nM
same,logP at 24 h,[3],5.29
same,Drug metabolism,Cytochrome P450 [19],Metabolite_Detected
same,IC50,HCT-116 [1],2 nM
same,Activity,HCT-116 [20],Dose-dependent effect
same,IC50,[2],2000 nM
same,Ratio IC50,K-562R [21],3
same,Activity,HCT-116 [22],>90%
same,Ratio IC50,K-562R [23],27
same,Stability,[24],Stable
same,IC50,A549 [12],3 nM
same,IC50,HT-29,3 nM
same,Drug metabolism,Cytochrome P450 [4],Metabolite_Detected
same,Activity,HUVEC [25],Active
same,Drug metabolism,[26],Metabolite_Detected
same,Ratio IC50,A549 [27],67
same,IC50,HUVEC [13],0.81 nM
same,Drug metabolism,Cytochrome P450 [5],Metabolite_Detected
same,IC50,U-87 MG,1.9 nM
same,IC50,K562,2 nM
same,solubility at 4 h,[6],0.42 µg/mL
same,Activity,HUVEC [28],Dose-dependent effect
same,Activity,HUVEC [29],Active
same,Drug metabolism,[7],Metabolite_Detected
same,Drug metabolism,[8],Metabolite_Detected
C=C(c1cc(OC)c(OC)c(OC)c1)c1ccc2c(c1)c1ccccc1n2C,IC50,HCT-116 [1],15 nM
same,IC50,[2],3000 nM
C=C(c1ccc2c(c1)c1ccccc1n2C)c1cc(C#N)nc2ccccc12,IC50,HCT-116 [1],12 nM
same,IC50,[2],3600 nM
C=C(c1ccc2c(c1)c1ccccc1n2C)c1nc(C)nc2ccccc12,IC50,HCT-116 [1],40 nM
same,IC50,[2],2100 nM
C=C(c1ccc(OC)c(O)c1)c1cc(OC)c(O)c(OC)c1,Drug metabolism,Cytochrome P450 [9],Metabolite_Detected
same,Drug metabolism,[10],Metabolite_Detected
C=C(c1ccc2[nH]c3ccccc3c2c1)c1cc(C)nc2ccccc12,Drug metabolism,Cytochrome P450 [30],Metabolite_Detected
same,Drug metabolism,[31],Metabolite_Detected
C=C(c1ccc(OC)c(O)c1)c1cc(OC)c(OC)c(OC)c1O,Drug metabolism,Cytochrome P450 [9],Metabolite_Detected
same,Drug metabolism,[10],Metabolite_Detected
C=C(c1ccc(OC)c(O)c1)c1cc(OC)c(OC)c(OC)c1,Drug metabolism,Cytochrome P450 [32],Metabolite_Detected
same,IC50,K-562R [11],3 nM
same,logP,[3]; 24 h,3.25
same,IC50,[2],2100 nM
same,IC50,A549 [12],8 nM
same,Drug metabolism,Cytochrome P450 [33],Metabolite_Detected
same,IC50,HT-29,265 nM
same,Drug metabolism,Cytochrome P450 [4],Metabolite_Detected
same,IC50,HUVEC [13],2 nM
same,Drug metabolism,Cytochrome P450 [5],Metabolite_Detected
same,IC50,U-87 MG,8.2 nM
same,IC50,K562,2 nM
same,Drug metabolism,[34],Metabolite_Detected
same,Drug metabolism,[35],Metabolite_Detected
same,solubility at 4 h,[6],11.6 µg/mL
same,Drug metabolism,[7],Metabolite_Detected
same,Drug metabolism,[8],Metabolite_Detected
C=C(c1ccc2c(c1)c1cc(F)ccc1n2C)c1cn(C)c(=O)n(C)c1=O,IC50,HCT-116 [1],300 nM
